Assay results: patent US6387943B1, “Vancoresmycin, a process for its production and its use as a pharmaceutical” (Aventis Pharma Deutschland GmbH, priority 1998, dated 2002)
≈ marks a conversion by molar mass, not a printed value.

Key:
E. coli super sen. 2231 = assay: Minimum inhibitory concentration (MIC); type: cell-based; settings: Escherichia coli
Ent. faecium VR-1 = assay: Minimum inhibitory concentration (MIC); type: cell-based; settings: Enterococcus faecium, VR1; Ent. faecium VR-1 (resistant to vancomycin)
S. epidermidis 5747 IW = assay: Minimum inhibitory concentration (MIC); type: cell-based; settings: Staphylococcus epidermidis
S. aureus Wein 11 = assay: Minimum inhibitory concentration (MIC); type: cell-based; settings: Staphylococcus aureus, WEIN11
[1] = system: vancomycin- and teicoplanin-resistant strains; assay: Antibiotic activity against resistant strains; type: cell-based
Ent. faecalis D 7F = assay: Minimum inhibitory concentration (MIC); type: cell-based; settings: Enterococcus faecalis, D7F
[2] = system: Pseudomonas aeruginosa M35; assay: Minimum inhibitory concentration (MIC); type: cell-based
Ent. faecium D-65 = assay: Minimum inhibitory concentration (MIC); type: cell-based; settings: Enterococcus faecium, D65
Ent. durans 4939H = assay: Minimum inhibitory concentration (MIC); type: cell-based; settings: Enterococcus durans
S. aureus E-710 = assay: Minimum inhibitory concentration (MIC); type: cell-based; settings: Staphylococcus aureus, E710
Ent. faecium P-1 = assay: Minimum inhibitory concentration (MIC); type: cell-based; settings: Enterococcus faecium, P1
S. haemolyticus 809 = assay: Minimum inhibitory concentration (MIC); type: cell-based; settings: Staphylococcus haemolyticus
Ent. faecalis D 21777 = assay: Minimum inhibitory concentration (MIC); type: cell-based; settings: Enterococcus faecalis, D21777
S. epidermidis 823 = assay: Minimum inhibitory concentration (MIC); type: cell-based; settings: Staphylococcus epidermidis
S. aureus Brussel 4115 = assay: Minimum inhibitory concentration (MIC); type: cell-based; settings: Staphylococcus aureus, BRUSSEL4115
S. aureus 20240 = assay: Minimum inhibitory concentration (MIC); type: cell-based; settings: Staphylococcus aureus
S. aureus E-712 = assay: Minimum inhibitory concentration (MIC); type: cell-based; settings: Staphylococcus aureus, E712
Ent. faecium P-2 = assay: Minimum inhibitory concentration (MIC); type: cell-based; settings: Enterococcus faecium, P2
[3] = system: Staphylococcus aureus 209P; assay: Minimum inhibitory concentration (MIC); type: cell-based
S. aureus Wein 12 = assay: Minimum inhibitory concentration (MIC); type: cell-based; settings: Staphylococcus aureus, WEIN12
S. epidermidis 825 = assay: Minimum inhibitory concentration (MIC); type: cell-based; settings: Staphylococcus epidermidis
Ent. faecium 5601 (H) = assay: Minimum inhibitory concentration (MIC); type: cell-based; settings: Enterococcus faecium
S. epidermidis 607 = assay: Minimum inhibitory concentration (MIC); type: cell-based; settings: Staphylococcus epidermidis
Escherichia coli 9632 = assay: Minimum inhibitory concentration (MIC); type: cell-based
Ent. faecalis D 23241 = assay: Minimum inhibitory concentration (MIC); type: cell-based; settings: Enterococcus faecalis, D23241
S. aureus Chantot 31153 = assay: Minimum inhibitory concentration (MIC); type: cell-based; settings: Staphylococcus aureus, CHANTOT31153
[4] = Solubility (physico-chemical properties); type: physicochemical; settings: solvents in which soluble
S. aureus 3066 = assay: Minimum inhibitory concentration (MIC); type: cell-based; settings: Staphylococcus aureus; S. aureus 3066 (resistant strain to methicillin)
[5] = system: Enterococcus faecalis ATCC 29212; assay: Minimum inhibitory concentration (MIC); type: cell-based; settings: ATCC29212
Ent. faecalis D 26777 = assay: Minimum inhibitory concentration (MIC); type: cell-based; settings: Enterococcus faecalis, D26777
S. aureus MLS-16 = assay: Minimum inhibitory concentration (MIC); type: cell-based; settings: Staphylococcus aureus, MLS16
S. aureus SG511 = assay: Minimum inhibitory concentration (MIC); type: cell-based; settings: Staphylococcus aureus
Ent. faecalis D 756 = assay: Minimum inhibitory concentration (MIC); type: cell-based; settings: Enterococcus faecalis, D756
Ent. hirae 55 = assay: Minimum inhibitory concentration (MIC); type: cell-based; settings: Enterococcus hirae
S. aureus 503(Mers) = assay: Minimum inhibitory concentration (MIC); type: cell-based
S. aureus 20424 = assay: Minimum inhibitory concentration (MIC); type: cell-based; settings: Staphylococcus aureus
S. warneri 6563 II (2) = assay: Minimum inhibitory concentration (MIC); type: cell-based; settings: Staphylococcus warneri

Q: Which results are given for C/C(=C\CC(O)CC(O)CCC(C)C(O)C(C)C(O)CCCC(O)C(C)C(O)/C(C)=C/C(C)C(=O)/C(C)=C/C(O)C(O)CC(O)CC(OC1OC(C)C(O)C(N)C1O)C(C)CCC(O)CC(O)CCC(C)C(O)C(C)C(O)C(C)C)C(=O)C1=C(O)/C(=C/C(C)C)N(C)C1=O (stereo not shown) [Vancoresmycin]?
A: MIC (E. coli super sen. 2231): > 100 µg/mL; MIC (Ent. faecium VR-1): 0.39 µg/mL (≈ 0.29 µM); MIC (S. epidermidis 5747 IW): 0.1 µg/mL (≈ 0.0744 µM); MIC (S. aureus Wein 11): 0.05 µg/mL (≈ 0.0372 µM); antibiotic activity [1]: active; MIC (Ent. faecalis D 7F): 0.39 µg/mL (≈ 0.29 µM); MIC [2]: > 100 µg/mL; MIC (Ent. faecium D-65): 0.39 µg/mL (≈ 0.29 µM); MIC (Ent. durans 4939H): 0.39 µg/mL (≈ 0.29 µM); MIC (S. aureus E-710): 0.1 µg/mL (≈ 0.0744 µM); MIC (Ent. faecium P-1): 0.39 µg/mL (≈ 0.29 µM); MIC (S. haemolyticus 809): 0.05 µg/mL (≈ 0.0372 µM); MIC (Ent. faecalis D 21777): 0.39 µg/mL (≈ 0.29 µM); MIC (S. epidermidis 823): 0.2 µg/mL (≈ 0.149 µM); MIC (S. aureus Brussel 4115): 0.05 µg/mL (≈ 0.0372 µM); MIC (S. aureus 20240): 0.05 µg/mL (≈ 0.0372 µM); MIC (S. aureus E-712): 0.1 µg/mL (≈ 0.0744 µM); MIC (Ent. faecium P-2): 0.39 µg/mL (≈ 0.29 µM); MIC [3]: 0.05 µg/mL (≈ 0.0372 µM); MIC (S. aureus Wein 12): 0.05 µg/mL (≈ 0.0372 µM); MIC (S. epidermidis 825): 0.1 µg/mL (≈ 0.0744 µM); MIC (Ent. faecium 5601 (H)): 0.39 µg/mL (≈ 0.29 µM); MIC (S. epidermidis 607): 0.1 µg/mL (≈ 0.0744 µM); MIC (Escherichia coli 9632): > 100 µg/mL; MIC (Ent. faecalis D 23241): 0.39 µg/mL (≈ 0.29 µM); MIC (S. aureus Chantot 31153): 0.05 µg/mL (≈ 0.0372 µM); Solubility [4]: Methanol, DMSO; MIC (S. aureus 3066): 0.1 µg/mL (≈ 0.0744 µM); MIC [5]: 0.39 µg/mL (≈ 0.29 µM); MIC (Ent. faecalis D 26777): 0.39 µg/mL (≈ 0.29 µM); MIC (S. aureus MLS-16): 0.39 µg/mL (≈ 0.29 µM); MIC (S. aureus SG511): 0.05 µg/mL (≈ 0.0372 µM); MIC (Ent. faecalis D 756): 0.39 µg/mL (≈ 0.29 µM); MIC (Ent. hirae 55): 0.39 µg/mL (≈ 0.29 µM); MIC (S. aureus 503(Mers)): 0.025 µg/mL (≈ 0.0186 µM); MIC (S. aureus 20424): 0.1 µg/mL (≈ 0.0744 µM); MIC (S. warneri 6563 II (2)): 0.1 µg/mL (≈ 0.0744 µM)
